In patent US9133207B2, “Tetrandrine derivatives with substituted 5-carbon, preparation method and use thereof” (Hangzhou Bensheng Pharmaceutical Co., Ltd., priority 2011, dated 2015):
Converted amounts (≈) assume the structure as drawn.

Tests used:
[1] = system: H9 (acute lymphoblastic leukemia, ALL); test: Leukemia cell growth inhibition, MTT, 72 h (Example 5); format: cell-based, human; details: Homo sapiens; 72 h, MTT
Summary of the method: (§1)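 An MTT read-out of viable cell concentration follows 72 h incubation (37° C, 5% CO2) of 6000 cells/well in 10% FBS-supplemented 1640 medium with the 5-substituted derivatives at varying concentrations.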

[2] = system: Jurkat (acute lymphoblastic leukemia, ALL); test: as above; format: cell-based, human; details: Homo sapiens, Jurkat; 72 h, MTT
Summary of the method: as §1

[3] = system: K562/adr (drug-resistant, chronic myeloid leukemia, CML); test: as above; format: cell-based, human; details: Homo sapiens, K562/Adr; 72 h, MTT
Summary of the method: as §1

[4] = system: Kasumi-1 (acute myeloid leukemia M2 type, AML-M2); test: as above; format: cell-based, human; details: Homo sapiens, Kasumi 1
Summary of the method: as §1

[5] = system: NB4 (acute promyelocytic leukemia, AML); test: as above; format: cell-based, human; details: Homo sapiens; 72 h, MTT
Summary of the method: as §1

[6] = system: RPMI8226 (multiple myeloma); test: Multiple myeloma cell growth inhibition, MTT, 72 h (Example 6); format: cell-based, human; details: Homo sapiens, RPMI-8226; 72 h, MTT, RPMI8226
Summary of the method: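 Viability was read by MTT after 72 h of compound exposure at 37 °C, 5% CO2. Each well held 6000 RPMI8226 cells in 1640 medium containing 10% fetal bovine serum, with derivatives added at various concentrations.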

[7] = system: CaES-17 (esophageal cancer cell); test: Solid tumor cell growth inhibition, MTT, 72 h (Example 7); format: cell-based, human; details: Homo sapiens, CaEs17; 72 h, MTT, CAES-17
Summary of the method: (§2)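 Cell viability was quantified by MTT 72 h after adding derivatives at different concentrations to 4000 cells/well. Untreated cells served as the 100% reference.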

[8] = system: MG63 (osteosarcoma); test: as above; format: cell-based, human; details: Homo sapiens; 72 h, MTT, MG-63
Summary of the method: as §2

[9] = system: PANC-1 (pancreatic cancer); test: as above; format: cell-based, human; details: Homo sapiens; 72 h, MTT, PANC-1
Summary of the method: as §2

[10] = system: PC-3 (prostate cancer); test: as above; format: cell-based, human; details: Homo sapiens; 72 h, MTT, PC-3
Summary of the method: as §2

[11] = system: A549 (human lung cancer); test: as above; format: cell-based; details: Homo sapiens; 72 h, MTT, A549
Summary of the method: as §2

[12] = system: Becap37 (human breast cancer cell); test: as above; format: cell-based; details: Homo sapiens; 72 h, MTT, Becap-37
Summary of the method: as §2

[13] = system: Huh7 (human liver cancer cell); test: as above; format: cell-based; details: Homo sapiens; 72 h, MTT, Huh-7
Summary of the method: as §2

[14] = system: MGC 803 (human gastric cancer cell); test: as above; format: cell-based; details: Homo sapiens
Summary of the method: as §2

[15] = system: RKO (human colon adenocarcinoma cell); test: as above; format: cell-based; details: Homo sapiens; 72 h, MTT, RKO
Summary of the method: as §2

Compound | IC50 [1] | IC90 [1] | IC50 [2] | IC90 [2] | IC50 [3] | IC90 [3] | IC50 [4] | IC90 [4] | IC50 [5] | IC90 [5] | IC50 [6] | IC90 [6] | IC50 [7] | IC90 [7] | IC50 [8] | IC90 [8] | IC50 [9] | IC90 [9] | IC50 [10] | IC90 [10] | other results
COCCCNCc1c2c3c(c(OC)c1OC)Oc1cc4c(cc1OC)CCN(C)[C@H]4Cc1ccc(cc1)Oc1cc(ccc1OC)C[C@@H]3N(C)CC2 [BS-TE-340] | 1.93 µg/mL (≈ 2.67 µM) | 3.23 µg/mL (≈ 4.46 µM) | 2.24 µg/mL (≈ 3.09 µM) | 4 µg/mL (≈ 5.53 µM) | 0.98 µg/mL (≈ 1.35 µM) | 2.39 µg/mL (≈ 3.3 µM) | 0.66 µg/mL (≈ 0.912 µM) | 1.8 µg/mL (≈ 2.49 µM) | 1.07 µg/mL (≈ 1.48 µM) | 2.87 µg/mL (≈ 3.96 µM) | 0.18 µg/mL (≈ 0.249 µM) | 0.999 µg/mL (≈ 1.38 µM) | 1.83 µg/mL (≈ 2.53 µM) | 7.21 µg/mL (≈ 9.96 µM) | 0.6 µg/mL (≈ 0.829 µM) | 1.19 µg/mL (≈ 1.64 µM) | 3.61 µg/mL (≈ 4.99 µM) | 5.72 µg/mL (≈ 7.9 µM) | 3.43 µg/mL (≈ 4.74 µM) | 4 µg/mL (≈ 5.53 µM) | IC50 [11]: 2.36 µg/mL (≈ 3.26 µM); IC90 [11]: 6.66 µg/mL (≈ 9.2 µM); IC50 [12]: 1.99 µg/mL (≈ 2.75 µM); IC90 [12]: 4.12 µg/mL (≈ 5.69 µM); IC50 [13]: 2.52 µg/mL (≈ 3.48 µM); IC90 [13]: 4.85 µg/mL (≈ 6.7 µM); IC50 [14]: 2.34 µg/mL (≈ 3.23 µM); IC90 [14]: 5.54 µg/mL (≈ 7.65 µM); IC50 [15]: 1.29 µg/mL (≈ 1.78 µM); IC90 [15]: 2.45 µg/mL (≈ 3.38 µM)
COc1ccc2cc1Oc1ccc(cc1)C[C@H]1c3cc(c(OC)cc3CCN1C)Oc1c(OC)c(OC)c(CN3CCN(c4ccccc4)CC3)c3c1[C@H](C2)N(C)CC3 [BS-TE-343] | 1.62 µg/mL (≈ 2.03 µM) | 2.75 µg/mL (≈ 3.45 µM) | 1.9 µg/mL (≈ 2.38 µM) | 5.27 µg/mL (≈ 6.61 µM) | 0.68 µg/mL (≈ 0.853 µM) | 2.38 µg/mL (≈ 2.99 µM) | 2.24 µg/mL (≈ 2.81 µM) | 6.95 µg/mL (≈ 8.72 µM) | 1.18 µg/mL (≈ 1.48 µM) | 3.06 µg/mL (≈ 3.84 µM) | 0.05 µg/mL (≈ 0.0627 µM) | 0.7 µg/mL (≈ 0.878 µM) | 2.09 µg/mL (≈ 2.62 µM) | 8.09 µg/mL (≈ 10.2 µM) | 1.15 µg/mL (≈ 1.44 µM) | 2.47 µg/mL (≈ 3.1 µM) | 2.84 µg/mL (≈ 3.56 µM) | 4.84 µg/mL (≈ 6.07 µM) | 2.72 µg/mL (≈ 3.41 µM) | 4.28 µg/mL (≈ 5.37 µM) | IC50 [11]: 3.54 µg/mL (≈ 4.44 µM); IC90 [11]: 12 µg/mL (≈ 15 µM); IC50 [12]: 6.96 µg/mL (≈ 8.73 µM); IC90 [12]: 8.17 µg/mL (≈ 10.3 µM); IC50 [13]: 2.14 µg/mL (≈ 2.69 µM); IC90 [13]: 4.85 µg/mL (≈ 6.09 µM); IC50 [14]: 1.1 µg/mL (≈ 1.38 µM); IC90 [14]: 2.88 µg/mL (≈ 3.61 µM); IC50 [15]: 2.25 µg/mL (≈ 2.82 µM); IC90 [15]: 3.24 µg/mL (≈ 4.07 µM)
COc1ccc2cc1Oc1ccc(cc1)C[C@H]1c3cc(c(OC)cc3CCN1C)Oc1c(OC)c(OC)c(CNCc3cccnc3)c3c1[C@H](C2)N(C)CC3 [BS-TE-348] | 1.33 µg/mL (≈ 1.79 µM) | 2.97 µg/mL (≈ 4 µM) | 1.82 µg/mL (≈ 2.45 µM) | 9.94 µg/mL (≈ 13.4 µM) | 1.45 µg/mL (≈ 1.95 µM) | 5.7 µg/mL (≈ 7.67 µM) | 1.96 µg/mL (≈ 2.64 µM) | 7.37 µg/mL (≈ 9.92 µM) | 1.14 µg/mL (≈ 1.53 µM) | 4.78 µg/mL (≈ 6.43 µM) | 0.09 µg/mL (≈ 0.121 µM) | 1 µg/mL (≈ 1.35 µM) | 2.3 µg/mL (≈ 3.1 µM) | 14.5 µg/mL (≈ 19.6 µM) | 1.52 µg/mL (≈ 2.05 µM) | 4.06 µg/mL (≈ 5.46 µM) | 4.55 µg/mL (≈ 6.12 µM) | 13.9 µg/mL (≈ 18.7 µM) | 4.44 µg/mL (≈ 5.98 µM) | 8.36 µg/mL (≈ 11.3 µM) | IC50 [11]: 9.94 µg/mL (≈ 13.4 µM); IC90 [11]: > 16 µg/mL; IC50 [12]: 3.84 µg/mL (≈ 5.17 µM); IC90 [12]: 13.6 µg/mL (≈ 18.3 µM); IC50 [13]: 3.05 µg/mL (≈ 4.11 µM); IC90 [13]: 8 µg/mL (≈ 10.8 µM); IC50 [14]: 1.93 µg/mL (≈ 2.6 µM); IC90 [14]: 5.53 µg/mL (≈ 7.44 µM); IC50 [15]: 1.77 µg/mL (≈ 2.38 µM); IC90 [15]: 3.83 µg/mL (≈ 5.16 µM)
